Patent US11738034B2, “Triphenylphosphonium-derivative compounds for eradicating cancer stem cells” (LUNELLA BIOTECH, INC., priority 2017, dated 2023)

Tests used:
[1] = tested on: MCF-7 human breast cancer cells; test: ATP-depletion assay (CellTiter-Glo & Hoechst 33342) in MCF-7 cells; assay type: cell-based; conditions: for effect on ATP levels in initial screen (positive hit): MCF-7, ATP depletion screen of nine TPP-derivatives; for effect on ATP levels in validation (FIGS. 2-4): MCF-7 treated for 72 h; for Hoechst staining (%) / ATP level (%): MCF-7 cell line, 50 μM treatment for 72 hours, normalized to control; for Hoechst staining (%): cell viability
Excerpt: In order to identify new molecules that can be used to target mitochondria within CSCs, the inventors screened a variety of TPP-derivatives as described herein, by employing CellTiter-Glo to measure intracellular levels of ATP in adherent cancer cells (MCF-7) in 96-well plates. As 85% of cellular ATP is normally derived from mitochondrial metabolism, ATP levels are an excellent read-out to monitor mitochondrial function. In parallel, the same 96-well plates were also stained with Hoechst 33342, to measure DNA content, to gauge cell viability. Therefore, we randomly selected 9 TPP derivatives and subjected them to screening in our assay system.
With respect to the ATP-depletion assay (with CellTiter-Glo & Hoechst 33342), MCF-7 cells were treated with different TPP derivatives for 72 hours in a black 96-well plate then wells were washed with PBS and were stained with Hoechst 33342 dye at a final concentration of 10 μg/ml. Fluorescence was read by a plate reader at 355 nm (excitation), 460 nm (emission). After washing with PBS CellTiterGlo luminescent assay (Promega) was performed according to the manufacturer's protocols to determine intracellular ATP levels in the Hoechst dye stained cells. Both the fluorescent and luminescent data were normalized to control levels and were shown as percentage for comparison.

MCF-7 cells = test: Mitochondrial oxygen consumption rate (OCR), Seahorse XFe96; assay type: cell-based, human; conditions: MCF-7, Seahorse, FIGS. 6-8
Excerpt: Some embodiments of the present approach relate to identifying TPP-derivatives compounds that target mitochondria in CSCs and represent potential anti-cancer therapies. To further validate that the ATP level reduction of the TPP compounds was indeed due to the inhibition of mitochondrial function, we directly measured mitochondrial oxygen consumption rates (OCR) using the Seahorse XFe96 metabolic flux analyser.
FIG. 6 illustrates the impaired mitochondrial function of MCF-7 cells after treatment with TPP Compound 1. FIGS. 7A and 7B illustrate the impaired mitochondrial function of MCF-7 cells after treatment with either TPP Compound 2 or TPP Compound 3. […] Oxygen consumption rate (OCR) was measured with a Seahorse XF96 Extracellular Flux Analyzer. Data are represented as mean+/−SEM. […] For FIG. 6, **p<0.01; ***p<0.001; indicates significance, all relative to the control. […] For FIG. 7, **p<0.01; ***p<0.001; indicates significance, all relative to the control. […] And for FIG. 8, **p<0.01; ***p<0.001; indicates significance, all relative to the control.
For measuring the mitochondrial OCR, mitochondrial function was determined by using the XF Cell Mito Stress Test Kit (Seahorse Bioscience, MA, USA) with a Seahorse XFe96 Extracellular Flux Analyzer (Seahorse Bioscience, MA, USA). MCF-7 cells were seeded in a specialized 96-well tissue culture plate (XF96 microplate). The next day, the TPP derivatives were added and the plate was incubated for 72 hours. Before the experiment media was changed to XF base medium (including 1 mM pyruvate, 2 mM glutamine and 10 mM glucose), cells were incubated at 37° C. in a CO2-free atmosphere for one hour before measurement. After detection of basal OCR (an indicator for mitochondrial respiration) OCR responses were evaluated towards the application of oligomycin (1 μM), FCCP (600 nM), and the combination of antimycin (1 μM) and rotenone (1 μM). From these measurements various parameters of mitochondrial function were determined. To determine cell viability in the measured wells sulphorodamine (SRB) assay was performed. Oxygen consumption rate values were then normalized to the given SRB values.

MCF-7 breast CSCs = test: 3D Spheroid (mammosphere) assay, CSC propagation; assay type: cell-based, human; conditions: MCF-7, treated for 5 days in mammosphere media; read-out: IC-50, CSC propagation (mammosphere formation)
Protocol: Following validation, the inventors evaluated the effects of these TPP-derivative compounds on the propagation of CSCs, using the mammosphere assay as a read-out. […] The data presented in FIG. 9, from left to right, are TPP-derivatives in the following order: 2,4-dichlorobenzyl-TPP (black); 1-naphthylmethyl-TPP (inclined lines); 3-methylbenzyl-TPP (dotted lines); 2-chlorobenzyl-TPP (white); 2-butene-1,4-bis-TPP (horizontal lines). Cells were treated for 5 days in mammosphere media. Data are represented as mean+/−SEM.
For the 3D Spheroid (mammosphere) assay, a single cell suspension of MCF-7 cells was prepared using enzymatic (lx Trypsin-EDTA, Sigma Aldrich, #T3924) and manual disaggregation (25 gauge needle) to create a single cell suspension. […] Different TPP derivatives were previously diluted in the mammosphere media before addition of cells. […] After 5 days of culture, spheres >50 μm were counted using an eyepiece graticule and mammosphere numbers were normalized to control treatments (cells treated with vehicle only).

[2] = tested on: normal fibroblasts (hTERT-BJ1); test: Cell viability (Hoechst) and intracellular ATP levels in normal fibroblasts; assay type: cell-based, human; conditions: hTERT-BJ1, 1 μM, 72 h
Protocol: Cell viability and intracellular ATP levels were determined in the same treated samples. Hoechst staining (%) of hTERT-BJ1 human fibroblasts (black); ATP level (%) of hTERT-BJ1 human fibroblasts (dotted); Hoechst staining (%) of MCF-7 cells (inclined lines); ATP level (%) of MCF-7 cells (white). TPP treatments at 1 μM, 72 h. Data are represented as mean+/−SEM. *p<0.05; **p<0.01; indicates significance, all relative to the control.
With respect to cell culture and reagents, the human breast adenocarcinoma cell line (MCF-7) was from the American Type Culture Collection (ATCC). hTERT-BJ1 cells were from Clontech, Inc. MCF-7 and hTERT-BJ1 cells were grown in DMEM supplemented with 10% fetal bovine serum, GlutaMAX and 1% penicillin-streptomycin and incubated at 37 C in a humidified 5% CO2 incubator. The medium was changed 2-3 times/week. […]
With respect to the ATP-depletion assay (with CellTiter-Glo & Hoechst 33342), MCF-7 cells were treated with different TPP derivatives for 72 hours in a black 96-well plate then wells were washed with PBS and were stained with Hoechst 33342 dye at a final concentration of 10 μg/ml. Fluorescence was read by a plate reader at 355 nm (excitation), 460 nm (emission). […]

Row | Structure (SMILES) | effect on ATP levels in initial screen (positive hit) [1] | effect on ATP levels in validation (FIGS. 2-4) [1] | effect on mitochondrial oxygen consumption (MCF-7 cells) | Hoechst staining (%) [1] [%] | ATP level (%) [1] [%] | other results
1 | Clc1ccccc1C[P+](c1ccccc1)(c1ccccc1)c1ccccc1 [2-chlorobenzyl-TPP] | significantly reduced ATP levels | progressively deplete cellular ATP levels | effectively inhibit mitochondrial oxygen consumption |  |  | 
2 | c1ccc([P+](Cc2cccc3ccccc23)(c2ccccc2)c2ccccc2)cc1 [1-naphthylmethyl-TPP] | significantly reduced ATP levels | progressively deplete cellular ATP levels | effectively inhibit mitochondrial oxygen consumption |  |  | IC50 (MCF-7 breast CSCs): > 5000 nM
3 | Cc1cccc(C[P+](c2ccccc2)(c2ccccc2)c2ccccc2)c1 [3-methylbenzyl-TPP] | significantly reduced ATP levels | progressively deplete cellular ATP levels | effectively inhibit mitochondrial oxygen consumption |  |  | 
4 | c1ccc([P+](Cc2ccc(C[P+](c3ccccc3)(c3ccccc3)c3ccccc3)cc2)(c2ccccc2)c2ccccc2)cc1 [p-xylylenebis-TPP, p-xylylene-bis-TPP] |  |  |  | 69.1 | 43.9 | 
5 | N#CC[P+](c1ccccc1)(c1ccccc1)c1ccccc1 [cyanomethyl-TPP] |  |  |  | 97.2 | 95.1 | 
6 | CC1(C)CC(NC(=O)C[P+](c2ccccc2)(c2ccccc2)c2ccccc2)CC(C)(C)N1[O] [mito-TEMPO, (2-(2,2,6,6-Tetramethylpiperidin-1-oxyl-4-ylamino)-2-oxoethyl)triphenylphosphonium chloride, reference compound] |  |  |  | 100.0 | 100.0 | 
7 | C(=CC[P+](c1ccccc1)(c1ccccc1)c1ccccc1)C[P+](c1ccccc1)(c1ccccc1)c1ccccc1 [2-butene-1,4-bis-TPP] | significantly reduced ATP levels | depletes ATP levels, relative to cell number | effectively inhibits mitochondrial oxygen consumption |  |  | effect on cell viability in human fibroblasts [2]: no effect on cell viability; reduction of ATP levels in human fibroblasts [2]: 25%; decrease of ATP levels in MCF-7 cancer cells ([1]; MCF-7, 1 μM, 72 h): ~85%; reduction of cell viability in MCF-7 cancer cells ([1]; MCF-7, 1 μM, 72 h): ~65%; fold more effective at reducing ATP levels in cancer cells, relative to normal fibroblasts ([1]; MCF-7 versus hTERT-BJ1, 1 μM): 4.7 fold; fold more effective at reducing cell viability in cancer cells (versus fibroblasts) ([1]; MCF-7 versus hTERT-BJ1, 1 μM): 2.8 fold; IC50 (MCF-7 breast CSCs): < 500 nM
8 | Clc1ccc(C[P+](c2ccccc2)(c2ccccc2)c2ccccc2)c(Cl)c1 [2,4-dichlorobenzyl-TPP] | significantly reduced ATP levels | progressively deplete cellular ATP levels | effectively inhibit mitochondrial oxygen consumption |  |  | 
9 | N#Cc1ccc(C[P+](c2ccccc2)(c2ccccc2)c2ccccc2)cc1 [4-cyanobenzyl-TPP] |  |  |  | 72.7 | 68.2 | 
